Structures are written as SMILES. Where “and” joins values, the source holds several entries; their conditions need not be identical. Equal values may be shown once. Read-outs that look alike come from different tables or passages of the source.

The source of these data is publication PMC11889159 (Scientific Reports, 2025).

The target of data set [1] is T1, bovine serum albumin (BSA) (Bos taurus, UniProt P02769). As for the experimental part: UV absorption measurement is a simple yet effective technique for examining structural changes and complex formation. […] Variations in the absorbance near 280 nm signify interactions with small molecule drugs.
Absorption spectra were recorded using a UV-vis spectrophotometer (T6 New Century) over the wavelength range of 200–400 nm.

In data set [2] the target is T1, bovine serum albumin (BSA). To be noted: experimental ΔG versus docking ΔG at Site I.
Experimental: The three-dimensional structure of BSA was obtained from the RCSB Protein Data Bank (PDB) database (https://www.rcsb.org/) (PDB ID: 4f5s). […] Open Babel 3.1.1 software was utilized to convert the sdf format files from the PubChem database to pdb format. […] Additionally, the molecular visualization was conducted using Pymol version 2.6.0a0 for 3D visualization and LigPlot + version 2.2.8 for 2D visualization.
The target of data set [3] is T1, bovine serum albumin (BSA). As to the kind of experiment: biochemical. To be noted: logKb.
The target of data set [4] is T1, bovine serum albumin (BSA). To be noted: for τave (average fluorescence lifetime): free BSA 3.72 ns. An excerpt: In general, the fluorescence lifetime measurement is the most definitive method to distinguish between dynamic and static quenching.
Data set [5] addresses T1, bovine serum albumin (BSA). To be noted: for λex/λem: pH 7.4. An excerpt:
Three-dimensional fluorescence spectroscopy, or excitation-emission matrix (EEM) spectroscopy, offers distinct advantages and broad applications for analyzing interactions between small molecules and BSA[55].
The excitation wavelength was systematically scanned from 220 to 350 nm with 5 nm increments, while the emission spectra were simultaneously recorded across the 220–500 nm range at a scanning speed of 12,000 nm min^− 1. The excitation and emission slit widths were maintained at 10 nm throughout the measurements to ensure consistent spectral resolution.

In data set [6] the target is T1, bovine serum albumin (BSA). Briefly: biochemical. An excerpt:
The inner filter effect (IFE) arises when high analyte concentrations (e.g., fluorophores, ligands, or biomolecules) attenuate excitation light or absorb emitted photons, effectively reducing the optical path length and consequently causing depressed fluorescence readings. To mitigate this phenomenon in our experimental system, we strategically optimized sample concentrations through preliminary calibration studies.
Fluorescence quenching mechanisms can be categorized into static, dynamic, and combined quenching. […] Combined quenching involves both mechanisms, where the fluorophore collides with and forms a stable complex with the quencher. These processes can be described by the Stern-Volmer equation[49]: [drawing 1]
Where F0 and F are the fluorescence intensities in the absence and presence of the quencher, respectively; KSV is the Stern-Volmer quenching constant; [Q] is the quencher concentration; Kq is the bimolecular quenching constant; and τ0 is the fluorescence lifetime in the absence of the quencher (6.3 × 10^− 9 s)[50]. […] (unit: mol/L), and the Y-axis represents the fluorescence intensity ratio F0/F. The data points represent the experimentally measured F0/F values, while the solid line is the linear fit. […] The slope obtained from the linear fit according to the Stern-Volmer equation represents the quenching constant (KSV).
The binding constant (Kb) is calculated using the following formula: […]
Where Kb is the binding constant, n is the number of binding sites per BSA molecule, F0 and F are the fluorescence intensities without and with the quencher, respectively, and [Q] is the quencher concentration. Linear regression is used to fit the data, resulting in a straight line whose slope indicates n (the number of binding sites), and the intercept gives logKb.
Where R is 8.314 J·mol^-1·K^-1, T is 298 K (273 + 25 °C), and Kb is the calculated binding constant.
Fluorescence spectra were acquired using a Hitachi F-7100 fluorescence spectrophotometer equipped with a 150 W xenon lamp and 10 mm quartz cuvette. The instrument parameters were maintained at excitation and emission bandwidths of 10 nm, with a scanning speed of 1200 nm·min^− 1 and PMT voltage of 400 V throughout the experiments.

On the set-up of data set [7]: method as in none printed. The settings on record: prolonged circulation; species and source not given; cited from earlier work.
Data set [8] concerns the target T1, bovine serum albumin (BSA). Briefly: biochemical. To be noted: LogKb, pH 7.4.
In data set [9] the target is T1, bovine serum albumin (BSA). Briefly: Job's method, stoichiometry of inclusion complexation with BSA. In kind it is binding. The settings on record: [BSA] + [TPT] = 2.0 × 10^-6 mol/L, λex 295 nm.
Data set [10] deals with T1, bovine serum albumin (BSA). The settings on record: van't Hoff plot, 293, 298 and 310 K, pH 7.4.
The mark [11] stands for this setting: BSA 1.0 × 10^-6 mol/L, drug 5.0 × 10^-6 mol/L.
Setting [12] is: BSA 1.0 × 10^-6 mol/L, drug 5.0 × 10^-6 mol/L, phosphate buffer, 298.15 K.
The mark [13] stands for this setting: Site marker: Blank (no marker), BSA 1.0 × 10^-6 mol/L.
[14] abbreviates: Site marker: Ibuprofen 2 × 10^-6 mol/L, BSA 1.0 × 10^-6 mol/L.
Where [15] appears, read: Site marker: Warfarin 2 × 10^-6 mol/L, BSA 1.0 × 10^-6 mol/L.
The mark [16] stands for this setting: BSA 1 × 10^-6 mol/L, drug 5 × 10^-6 mol/L, λex 295 nm, λem 350 nm.
Where [17] appears, read: BSA 1 × 10^-6 mol/L, drug 5 × 10^-6 mol/L.
The mark [18] stands for this setting: drug:BSA 5:1, Peak 1, BSA 3 × 10^-6 mol/L.
Where [19] appears, read: drug:BSA 5:1, Peak 1, BSA alone 9750.
Where [20] appears, read: drug:BSA 5:1, Peak 1, blue shift.
The mark [21] stands for this setting: drug:BSA 5:1, Peak 2, BSA 3 × 10^-6 mol/L.
[22] abbreviates: drug:BSA 5:1, Peak 2, BSA alone 7937.
[23] abbreviates: drug:BSA 5:1, Peak 2, blue shift.
Where [24] appears, read: drug:BSA 10:1, Peak 1, BSA 3 × 10^-6 mol/L.
The mark [25] stands for this setting: drug:BSA 10:1, Peak 1, BSA alone 9750.
The mark [26] stands for this setting: drug:BSA 10:1, Peak 1, blue shift.
The mark [27] stands for this setting: drug:BSA 10:1, Peak 2, BSA 3 × 10^-6 mol/L.
Setting [28] is: drug:BSA 10:1, Peak 2, BSA alone 7937.
[29] abbreviates: drug:BSA 10:1, Peak 2, blue shift.
The mark [30] stands for this setting: BSA 2 × 10^-6 mol/L, drug 0–33 × 10^-6 mol/L, pH 7.4, 298.15 K.
Setting [31] is: BSA 2 × 10^-6 mol/L, pH 7.4, 298.15 K.
Setting [32] is: BSA 2 × 10^-6 mol/L, phosphate buffer pH 7.40, λex 295 nm.
Where [33] appears, read: slope of double logarithmic plot, 298 K.

T1 sequence (P02769 25-607): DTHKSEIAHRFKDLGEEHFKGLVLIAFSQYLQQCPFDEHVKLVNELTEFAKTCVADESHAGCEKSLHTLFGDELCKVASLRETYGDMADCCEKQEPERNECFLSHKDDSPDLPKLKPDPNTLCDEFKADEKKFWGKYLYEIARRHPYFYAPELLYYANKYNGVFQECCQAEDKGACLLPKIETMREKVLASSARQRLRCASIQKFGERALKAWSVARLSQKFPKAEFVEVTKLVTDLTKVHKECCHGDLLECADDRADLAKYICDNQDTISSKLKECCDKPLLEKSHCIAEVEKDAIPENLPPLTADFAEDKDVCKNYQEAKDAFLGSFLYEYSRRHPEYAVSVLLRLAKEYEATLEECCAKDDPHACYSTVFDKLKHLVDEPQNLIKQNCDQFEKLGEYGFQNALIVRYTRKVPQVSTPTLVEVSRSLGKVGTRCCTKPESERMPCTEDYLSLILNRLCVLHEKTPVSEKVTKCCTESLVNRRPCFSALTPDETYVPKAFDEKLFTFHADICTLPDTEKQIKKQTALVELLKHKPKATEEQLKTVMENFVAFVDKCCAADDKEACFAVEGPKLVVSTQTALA

As usually defined, the Kd is the free concentration of one partner at which half of the binding sites on the other are occupied at equilibrium, for simple one-to-one binding. `CC[C@@]1(O)C(=O)OCc2c1cc1n(c2=O)Cc2cc3cc(O)ccc3nc2-1` [10-HCPT, 10-Hydroxycamptothecin]: in [1] (setting [11]), the “blue shift of the UV absorption peak of BSA at 280 nm” value (shortened to “blue shift … at 280 nm”) is 2 nm. The “Changes in absorption peaks (280 nm)” value in data set [1] (setting [12]) was 280 nm→278 nm. For the same molecule, the “ΔΔG between experimental and theoretical binding energy” value in data set [2] is “≈ 10.51 kJ·mol^−1”. The affinity in data set [3] (setting [13]), expressed as Kd, was 120 µM. For the same molecule, the dissociation constant (Kd) in data set [3] (setting [14]) was 44.7 µM. The Kd in data set [3] (setting [15]) is 1510 µM. Moreover, in [4] (setting [16]), the “A1 (decay amplitude)” value is 0.8806, the “A2 (decay amplitude)” value is 0.1858, the τ1 is 2.239 ns and the τ2 stood at 7.483 ns. The “τave (average fluorescence lifetime)” value in data set [4] (setting [17]) is 4.41 ns. For the same molecule, in data set [5], the Emission maximum shift was 15 nm; the λex/λem is 225/325 and 275/325. In data set [6], the affinity, expressed as Kd, was 121 µM; the “Kq (bimolecular quenching constant)” value is 23.79 ×10^11 L·mol^− 1·s^− 1; the “n (number of binding sites per BSA molecule)” value is 0.8809. Besides, in data set [6] (pH 7.4), the “Ksv (Stern-Volmer quenching constant)” value is 14.99 ×10^3 L·mol^− 1, the “Stern–Volmer equation Slope” value was 14986.88 ± 1787.60 and the “blue shift of the maximum fluorescence emission peak of BSA (Δλmax)” value (from here on “blue shift … (Δλmax)”) is 11.8 nm.
`CC[C@@]1(O)C(=O)OCc2c1cc1n(c2=O)Cc2cc3ccccc3nc2-1` [CPT, Camptothecin]: the “blue shift … at 280 nm” value in [1] (setting [11]) is reported as 3 nm. Also, in data set [1] (setting [12]), the “Changes in absorption peaks (280 nm)” value came to 280 nm→277 nm. The dissociation constant Kd in data set [3] (setting [13]) is 234 µM; in data set [3] (setting [14]) it was 759 µM; in data set [3] (setting [15]), 5500 µM; in data set [6], 236 µM. Further, in data set [4] (setting [16]), the “A1 (decay amplitude)” value is reported as 0.7855. Besides, in data set [4] (setting [16]), the “A2 (decay amplitude)” value is given as 0.2263. Besides, in data set [4] (setting [16]), the τ1 was 1.889 ns. This molecule had a τ2 in data set [4] (setting [16]) of 5.78 ns. Further, in data set [4] (setting [17]), the “τave (average fluorescence lifetime)” value was 3.71 ns. For the same molecule, the “Reduction percent (fluorescence intensity)” value in [5] (drug:BSA 5:1, Peak 1) amounted to 65%; in data set [5] (drug:BSA 5:1, Peak 2), 30%; in [5] (drug:BSA 10:1, Peak 1) it was 67%; in data set [5] (drug:BSA 10:1, Peak 2) it was 33%. Besides, the λex/λem in data set [5] (setting [18]) is listed as 275/340; in [5] (setting [21]), 225/340; in [5] (setting [24]), 275/340; in data set [5] (setting [27]), 225/340. Also, the Intensity in data set [5] (setting [19]) came out at 3382; in data set [5] (setting [22]) it was 5518; in [5] (setting [25]), 3179; in data set [5] (setting [28]) it was 5323. Moreover, the Emission maximum shift in data set [5] (setting [20]), in [5] (setting [23]), in data set [5] (setting [26]) and in data set [5] (setting [29]) was 0 nm each time. Also, in data set [6] (setting [30]), the “Stern–Volmer equation Slope” value is on record as 18536.73 ± 2298.23. Moreover, the “Ksv (Stern-Volmer quenching constant)” value in [6] (setting [31]) is recorded as 18.53 ×10^3 L·mol^− 1. In addition, the “blue shift … (Δλmax)” value in data set [6] (setting [32]) is reported as 1.4 nm. In addition, the “Kq (bimolecular quenching constant)” value in data set [6] (Kq = KSV/τ0, τ0 6.3 × 10^-9 s) is recorded as 29.41 ×10^11 L·mol^− 1·s^− 1. The “n (number of binding sites per BSA molecule)” value in [6] (setting [33]) is 0.8287.
Take `CCc1c2c(nc3ccc(OC(=O)N4CCC(N5CCCCC5)CC4)cc13)-c1cc3c(c(=O)n1C2)COC(=O)[C@]3(O)CC` [CPT-11, Irinotecan]: in data set [1], the “Changes in absorption peaks (280 nm)” value amounted to 280 nm→258 nm. Moreover, in [4], the τ2 stood at 7.79 ns.
In the case of `CC[C@@]1(O)C(=O)OCc2c1cc1n(c2=O)Cc2cc3c(CN(C)C)c(O)ccc3nc2-1` [TPT, Topotecan], the “blue shift … at 280 nm” value in data set [1] (setting [11]) came to 12 nm. Moreover, the “Changes in absorption peaks (280 nm)” value in data set [1] (setting [12]) was found to be 280 nm→268 nm. In data set [7], the “circulation t1/2” value is recorded as “≈ 8 h”. Moreover, the Kd in data set [3] was 12.6 µM and 6.61 µM and 12 µM; in [8] (293 K), 3.98 µM; in [8] (298 K) it was 4.37 µM; in data set [8] (310 K), 5.13 µM; in data set [6], 11 µM. Moreover, the “A1 (decay amplitude)” value in data set [4] (setting [16]) is listed as 0.8636. Besides, the “A2 (decay amplitude)” value in data set [4] (setting [16]) was 0.1543. Also, in data set [4] (setting [16]), the τ1 is on record as 1.699 ns. For the same molecule, the τ2 in data set [4] (setting [16]) was 7.6602 ns. The “τave (average fluorescence lifetime)” value in [4] (setting [17]) stood at 4.36 ns. In addition, the λex/λem in [5] (setting [18]) is on record as 275/340; in data set [5] (setting [21]) it was 225/340; in data set [5] (setting [24]) it was 275/325; in data set [5] (setting [27]), 225/320. Also, the Intensity in data set [5] (setting [19]) is 8453; in [5] (setting [22]), 5380; in [5] (setting [25]) it was 4956; in data set [5] (setting [28]), 2777. For the same molecule, the Emission maximum shift in [5] (setting [20]) was determined as 0 nm; in [5] (setting [23]), 0 nm; in data set [5] (setting [26]), 15 nm; in data set [5] (setting [29]) it was 20 nm. In addition, in [9], the “molar fraction at maximum fluorescence intensity change (Job's plot)” value amounted to 0.5. The “Stern–Volmer equation Slope” value in data set [6] (setting [30]) was 29101.32 ± 782.38. Besides, the “Ksv (Stern-Volmer quenching constant)” value in data set [6] (setting [31]) was 29.10 ×10^3 L·mol^− 1. Besides, the “blue shift … (Δλmax)” value in data set [6] (setting [32]) is on record as 1.0 nm. Besides, the “Kq (bimolecular quenching constant)” value in data set [6] (Kq = KSV/τ0, τ0 6.3 × 10^-9 s) was 46.19 ×10^11 L·mol^− 1·s^− 1. The “KSV” value in data set [6] (as quoted in the discussion of Table 2) is 29.10 × 10^2 M^− 1. For the same molecule, in data set [6] (setting [33]), the “n (number of binding sites per BSA molecule)” value was determined as 1.1165. The same molecule showed a ΔS in [10] of 0.066 kJ·mol^− 1·K^− 1.
